The text below walks through data of ChEMBL document CHEMBL4680118, “Cerpegin-derived furo[3,4-c]pyridine-3,4(1H,5H)-diones enhance cellular response to interferons by de novo pyrimidine biosynthesis inhibition” (Eur J Med Chem, 2020).

Active and inactive are the calls of the source. The rule behind the calls is not given here. Where only a bound is given, the exact number is not on record here.

For the first test, the target named is T1, Dihydroorotate dehydrogenase (quinone), mitochondrial (Homo sapiens, UniProt Q02127). The experiment in a line: Inhibition of DHODH in human HEK-293 cells transfected with ISRE-luciferase reporter gene assessed as increase in IFN-alpha mediated cellular response at 6 to 178 uM after 24 hrs by luciferase reporter gene assay. The conditions noted are these: HEK293, dose 6-178 µM. It is filed as cell-based.
T1 sequence (Q02127 whole entry): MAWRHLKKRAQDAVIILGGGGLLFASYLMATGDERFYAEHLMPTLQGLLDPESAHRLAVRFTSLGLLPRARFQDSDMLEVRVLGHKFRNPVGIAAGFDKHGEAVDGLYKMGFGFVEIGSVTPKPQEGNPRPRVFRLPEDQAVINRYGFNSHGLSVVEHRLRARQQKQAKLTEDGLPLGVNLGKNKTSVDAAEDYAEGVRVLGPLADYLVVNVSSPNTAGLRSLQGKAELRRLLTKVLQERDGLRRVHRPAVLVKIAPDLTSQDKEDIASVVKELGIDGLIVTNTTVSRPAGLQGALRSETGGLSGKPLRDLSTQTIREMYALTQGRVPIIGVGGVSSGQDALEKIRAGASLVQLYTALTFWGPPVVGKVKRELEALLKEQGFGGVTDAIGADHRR
For `CC1(c2ccccc2)OC(=O)c2c1ccn(C1CC1)c2=O` (stereo not given), the outcome was Active.

In the next test the target is T1, Dihydroorotate dehydrogenase (quinone), mitochondrial. The experiment in a line: Inhibition of DHODH in human HEK-293 cells transfected with ISRE-luciferase reporter gene assessed as increase in IFN-alpha mediated cellular response after 24 hrs by luciferase reporter gene assay. The settings on record: read-out: EC50. Background: In a reporter assay the amount or activity of a reporter protein is the signal.
In the case of `CC1(c2ccccc2)OC(=O)c2c1ccn(C1CC1)c2=O` (stereo not given), the EC50 came out at 27 µM.

The same test, now with this note: read-out: pEC50 (converted).
As to `Cn1ccc2c(c1=O)C(=O)OC21CCCCC1`, the EC50 was > 158 µM.

Consider `CCC1(C)OC(=O)c2c1ccn(C1CC1)c2=O` (stereo not given), for which the EC50 is > 158 µM.

For the molecule `O=C1OC2(CCCCC2)c2ccnc(O)c21`, the EC50 was > 158 µM.

`O=C1OC2(CCCCC2)c2ccn(CC3CC3)c(=O)c21`: the EC50 was > 158 µM.

With `CCC1(CC)OC(=O)c2c1ccn(C1CC1)c2=O`, the EC50 is > 158 µM.

In the case of `O=C1OC2(CCCC2)c2ccn(C3CC3)c(=O)c21`, the EC50 was 52.5 µM.

Regarding `CC1=C(C(=O)NC2CC2)C(=O)OC12CCCCC2`, the EC50 was > 158 µM.

In the case of `CC1(C)OC(=O)c2c1ccnc2O`, the EC50 is > 158 µM.

In the case of `CC1(C)OC(=O)c2c1ccn(C1CC1)c2=O`, the EC50 was > 158 µM.

As to `O=C1OC2(CCCCC2)c2ccn(C3CCC3)c(=O)c21`, the EC50 was > 158 µM.

Consider `O=C1OC2(CCCCC2)c2ccn(C3CCCCC3)c(=O)c21`, for which the EC50 is > 158 µM.

With `CC(C)n1ccc2c(c1=O)C(=O)OC21CCCCC1`, the EC50 is > 158 µM.

Take `O=C1OC2(CCCCC2)c2ccn(C3CCCC3)c(=O)c21`: the EC50 is > 158 µM.
